The target of assay [1] is T1, Human immunodeficiency virus type 1 protease (Human immunodeficiency virus 1, UniProt Q72874). Nature of the assay: Binding affinity against human immunodeficiency virus (HIV) protease. Type of assay: single protein, human immuno deficiency virus protease.
A further assay addresses T2, Renin (Homo sapiens, UniProt P00797).
T2 sequence (P00797 whole entry): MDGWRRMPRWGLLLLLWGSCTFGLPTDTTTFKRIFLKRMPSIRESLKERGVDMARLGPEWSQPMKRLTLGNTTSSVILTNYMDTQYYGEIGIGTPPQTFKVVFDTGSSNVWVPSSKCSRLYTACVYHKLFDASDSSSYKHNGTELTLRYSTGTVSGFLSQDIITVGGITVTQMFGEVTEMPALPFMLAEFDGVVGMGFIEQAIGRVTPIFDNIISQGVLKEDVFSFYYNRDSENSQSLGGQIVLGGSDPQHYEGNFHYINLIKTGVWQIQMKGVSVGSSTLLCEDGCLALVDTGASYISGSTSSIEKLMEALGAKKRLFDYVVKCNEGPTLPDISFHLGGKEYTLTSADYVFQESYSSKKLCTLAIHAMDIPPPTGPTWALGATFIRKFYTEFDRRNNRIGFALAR
Nature of the assay: Inhibitory concentration against renin.

Assay [2] has as its target T1, Human immunodeficiency virus type 1 protease. Nature of the assay: Inhibitory concentration against human immunodeficiency virus (HIV) protease. Also on record: species or system human immuno deficiency virus protease.
Another assay addresses Pepsin A (Homo sapiens, UniProt P0DJD9). Nature of the assay: Inhibitory concentration against pepsin.
The nature of assay [3]: Inhibitory concentration against cathepsin.

The results in this text go back to ChEMBL document CHEMBL1142025 (Bioorg Med Chem Lett, 2005).

Each structure is given as a SMILES string. Bounds are passed on as bounds.

Chain of Pepsin A (P0DJD9 whole entry): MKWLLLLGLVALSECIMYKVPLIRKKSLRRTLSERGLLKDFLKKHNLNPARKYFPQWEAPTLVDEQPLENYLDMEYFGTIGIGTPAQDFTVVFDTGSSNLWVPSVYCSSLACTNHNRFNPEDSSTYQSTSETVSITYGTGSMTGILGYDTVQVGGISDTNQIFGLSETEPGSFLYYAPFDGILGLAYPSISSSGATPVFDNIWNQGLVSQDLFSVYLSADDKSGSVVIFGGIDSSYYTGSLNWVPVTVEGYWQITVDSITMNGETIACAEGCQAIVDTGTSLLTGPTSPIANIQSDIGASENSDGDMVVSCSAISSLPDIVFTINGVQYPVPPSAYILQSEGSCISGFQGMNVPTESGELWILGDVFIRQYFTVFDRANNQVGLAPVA

In the case of `CCC(CC)CN([C@@H](CCCCNC(=O)OCC1c2ccccc2-c2ccccc21)C(=O)O)S(=O)(=O)c1ccc(C)cc1`, the Ki in assay [1] was 15.2 nM.

With `Cc1ccc(S(=O)(=O)N(CC(C)C)[C@H](C=O)CCCCNC(=O)OC2c3ccccc3-c3ccccc32)cc1`, the Ki in assay [1] was greater than 300 nM.

`Cc1ccc(S(=O)(=O)N(CC(C)C)[C@@H](CCCCNC(=O)OC2c3ccccc3-c3ccccc32)C(=N)N)cc1` registered a Ki in assay [1] of 280 nM.

Take `Cc1ccc(S(=O)(=O)N(CC(C)C)[C@H](CO)CCCCNC(=O)OC2c3ccccc3-c3ccccc32)cc1`: in assay [1], the Ki is 107 nM.

As to `Cc1ccc(S(=O)(=O)N(Cc2ccccc2)[C@@H](CCCCNC(=O)OCC2c3ccccc3-c3ccccc32)C(=O)O)cc1`, the affinity in assay [1] corresponds to a Ki of 19.6 nM.

`CCC(C)CN([C@@H](CCCCNC(=O)OCC1c2ccccc2-c2ccccc21)C(=O)O)S(=O)(=O)c1ccc(C)cc1` (stereo partly drawn) came in with a Ki in assay [1] of 13.5 nM.

As for `Cc1ccc(S(=O)(=O)N(CCCC[C@H](NC(=O)OCC2c3ccccc3-c3ccccc32)C(=O)O)CC(C)C)cc1`, in assay [1], the Ki was found to be 2000 nM.

For the compound `Cc1ccc(S(=O)(=O)N(CC2CC2)[C@@H](CCCCNC(=O)OCC2c3ccccc3-c3ccccc32)C(=O)O)cc1`, the Ki in assay [1] stood at 3.9 nM.

Regarding `CC(C)CN([C@@H](CCCCNC(=O)OCC1c2ccccc2-c2ccccc21)C(=O)O)S(=O)(=O)c1ccc([N+](=O)[O-])cc1`, the Ki in assay [1] is 7.2 nM.

Consider `COC(=O)[C@H](CCCCNC(=O)OC1c2ccccc2-c2ccccc21)N(CC(C)C)S(=O)(=O)c1ccc(C)cc1`, for which the Ki in assay [1] was greater than 300 nM.

In the case of `Cc1ccc(S(=O)(=O)N(CC(C)C)[C@@H](CCCCCNC(=O)OCC2c3ccccc3-c3ccccc32)C(=O)O)cc1`, the Ki in assay [1] was greater than 250 nM.

In assay [1], `CC(C)CN([C@@H](CCCCNC(=O)OCC1c2ccccc2-c2ccccc21)C(=O)O)S(=O)(=O)c1cccs1` came in with a Ki of 42 nM.

`Cc1ccc(S(=O)(=O)N(CC(C)C)[C@@H](CCCCNC(=O)CC2c3ccccc3-c3ccccc32)C(=O)O)cc1` returned an inhibition constant Ki in assay [1] of 89.7 nM.

Turning to `CC(C)(C)OC(=O)NCCCC[C@H](NC(=O)OCc1ccccc1)C(=O)O`, the Ki in assay [1] was greater than 100000 nM.

On to `Cc1ccc(S(=O)(=O)N(CC(C)C)[C@@H](CCCCNC(=O)OC2c3ccccc3-c3ccccc32)C(=O)O)cc1`, for which the Ki in assay [1] worked out at 105 nM.

On to `CC(C)CN(C(=O)c1ccccc1)[C@@H](CCCCNC(=O)OCC1c2ccccc2-c2ccccc21)C(=O)O`, for which the Ki in assay [1] was greater than 300 nM.

The compound `Cc1ccc(S(=O)(=O)N(CC(C)C)[C@@H](CCCCNC(=O)OC2c3ccccc3-c3ccccc32)C(N)=O)cc1` yielded a Ki in assay [1] of 107 nM.

Take `Cc1ccc(S(=O)(=O)N(CC2CCCC2)[C@@H](CCCCNC(=O)OCC2c3ccccc3-c3ccccc32)C(=O)O)cc1`: the Ki in assay [1] came to 5.2 nM.

`Cc1ccc(S(=O)(=O)N(CC(C)C)[C@@H](CCNC(=O)OCC2c3ccccc3-c3ccccc32)C(=O)O)cc1` registered a Ki in assay [1] greater than 250 nM.

Compound `Cc1ccc(S(=O)(=O)N(CC(C)C)[C@@H](CCCCNC(=O)OC2c3ccccc3-c3ccccc32)C(=O)NN)cc1` registered a Ki in assay [1] of 254 nM.

Take `CC(C)CN([C@@H](CCCCNC(=O)OCC1c2ccccc2-c2ccccc21)C(=O)O)S(=O)(=O)c1ccc(C(C)(C)C)cc1`: the Ki in assay [1] is 257 nM.

On to `CC(C)CN([C@@H](CCCCNC(=O)OCC1c2ccccc2-c2ccccc21)C(=O)O)S(=O)(=O)c1ccc(N)cc1`, for which the IC50 on Renin was 5.2 µM; in assay [2], 2.1 nM; against Pepsin A, 4.1 µM; in assay [3] it was 10.3 µM. In addition, affinity in assay [1] was put at a Ki of 2.1 nM.

With `Cc1ccc(S(=O)(=O)N(CC(C)C)[C@@H](CCCCNC(=O)OC2c3ccccc3-c3ccccc32)C(=O)NO)cc1`, the affinity in assay [1] corresponds to a Ki of 245 nM.

On to `Cc1ccc(S(=O)(=O)N(CC(C)C)[C@H](CN)CCCCNC(=O)OC2c3ccccc3-c3ccccc32)cc1`, for which the Ki in assay [1] is greater than 300 nM.

In turn, `Cc1ccc(S(=O)(=O)N(CC(C)C)[C@@H](CCCNC(=O)OCC2c3ccccc3-c3ccccc32)C(=O)O)cc1` returned a Ki in assay [1] of 180 nM.

As for `Cc1ccc(S(=O)(=O)N(CC(C)C)[C@@H](CCCCNC(=O)OCC2c3ccccc3-c3ccccc32)C(=O)O)cc1`, the IC50 on Renin was 6.5 µM; in assay [2] it was 5 nM; on Pepsin A it was 5.4 µM; in assay [3], 15.6 µM. In assay [1], this compound showed a Ki of 5 nM.

`CC(C)CN([C@@H](CCCCNC(=O)OCC1c2ccccc2-c2ccccc21)C(=O)O)S(=O)(=O)c1cccc2ccccc12` returned a Ki in assay [1] of 54.9 nM.

On to `Cc1ccc(S(=O)(=O)N(CC(C)C)[C@@H](CCCCNC(=O)OCc2ccccc2)C(=O)O)cc1`, for which the Ki in assay [1] is greater than 250 nM.

`Cc1ccc(S(=O)(=O)N(CC(C)C)[C@@H](CNC(=O)OCC2c3ccccc3-c3ccccc32)C(=O)O)cc1` came in with a Ki in assay [1] greater than 250 nM.

The compound `Cc1ccc(S(=O)(=O)N(CC(C)C)[C@@H](CCCCNC(=O)OC2c3ccccc3-c3ccccc32)C(=N)S)cc1` registered a Ki in assay [1] of 127 nM.

With `Cc1ccc(S(=O)(=O)N[C@@H](CCCCNC(=O)OC(C)(C)C)C(=O)O)cc1`, the Ki in assay [1] was greater than 100000 nM.

`Cc1ccc(S(=O)(=O)NCCC[C@H](NC(=O)OCC2c3ccccc3-c3ccccc32)C(=O)O)cc1` showed a Ki in assay [1] of 26200 nM.

Consider `CC(C)CN([C@@H](CCCCNC(=O)OCC1c2ccccc2-c2ccccc21)C(=O)O)S(=O)(=O)c1ccc(F)cc1`, for which the Ki in assay [1] came out at 17.4 nM.

As to `Cc1ccc(S(=O)(=O)N(CC(C)C)[C@@H](CCCCNC(=O)OC2c3ccccc3-c3ccccc32)c2nnn[nH]2)cc1`, in assay [1], the Ki is greater than 300 nM.

In turn, `Cc1ccc(S(=O)(=O)N(CC(C)C)[C@@H](CCCCNC(=O)OC(C)(C)C)C(=O)O)cc1` returned a Ki in assay [1] greater than 250 nM.

For orientation: Ki means the dissociation constant of the complex between target and ligand, obtained from inhibition or displacement. Low readings indicate tighter binding, high ones weaker binding. In general, IC50 refers to the concentration that gives 50% inhibition. A higher IC50 goes with a need for much substance.
